From US20250250230A1, “HETEROCYCLIC COMPOUND” (TAKEDA PHARMACEUTICAL COMPANY LIMITED, priority 2022, published 2025)

What follows are compounds tested against T1, human orexin type 2 receptor (Homo sapiens, UniProt O43614) (assay: Measurement of orexin type 2 receptor agonist activity (calcium fluorescence, Fluo-4 AM, FDSS)). Conditions: test compound 3 μM; CHO cells expressing human OX2 receptor; DMSO = 0%, orexin A (human) = 100%.
T1 construct: expressed in transfected cells
T1 sequence (O43614 1-444): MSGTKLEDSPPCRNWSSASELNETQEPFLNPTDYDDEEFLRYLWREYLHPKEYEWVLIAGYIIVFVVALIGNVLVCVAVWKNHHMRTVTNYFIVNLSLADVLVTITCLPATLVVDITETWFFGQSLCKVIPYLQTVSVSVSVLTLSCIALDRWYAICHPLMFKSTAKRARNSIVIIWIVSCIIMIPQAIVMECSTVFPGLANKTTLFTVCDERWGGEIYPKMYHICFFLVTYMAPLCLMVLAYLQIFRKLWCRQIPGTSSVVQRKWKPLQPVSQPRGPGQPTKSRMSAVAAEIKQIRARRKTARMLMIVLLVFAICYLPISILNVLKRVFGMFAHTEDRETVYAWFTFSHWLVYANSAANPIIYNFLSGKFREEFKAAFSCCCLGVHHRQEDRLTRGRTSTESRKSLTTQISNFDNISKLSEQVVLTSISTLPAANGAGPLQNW
Format: cell-based
Method in brief: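 Agonist response scaled between vehicle (0%) and human orexin A at 10 nM final (100%), from 2-min kinetic Fluo-4 fluorescence reads. Stable hOX2R CHO-K1 clone, dye-loaded in HBSS/20 mM HEPES/0.1% BSA with 1.25 mM probenecid before compound addition.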

In order of rising “OX2R agonist activity (3 μM, %)” value:
1. CC(=O)[C@@H]1CN(C(=O)[C@@H]2C[C@@]2(F)c2ccccc2-c2c(F)cccc2F)[C@H]1CNS(C)(=O)=O [Example 406, N-({(2R,3R)-3-acetyl-1-[(1S,2S)-2-(2′,6′-difluoro[1,1′-biphenyl]-2-yl)-2-fluorocyclopropane-1-carbonyl]azetidin-2-yl}methyl)methanesulfonamide]  50%
2. CC(C)NS(=O)(=O)NC[C@@H]1[C@H](F)CN1C(=O)[C@@H]1C[C@@]1(F)c1ccc(F)cc1-c1c(F)cccc1F [Example 425, N-({(2R,3R)-3-fluoro-1-[(1S,2S)-2-fluoro-2-(2′,5,6′-trifluoro[1,1′-biphenyl]-2-yl)cyclopropane-1-carbonyl]azetidin-2-yl}methyl)-N′-propan-2-ylsulfuric diamide]  72%
3. CS(=O)(=O)NC[C@@H]1CCN1C(=O)[C@@H]1C[C@H]1c1ccccc1-c1c(F)ccc(F)c1F [Example 408, N-({(2S)-1-[(1R,2R)-2-(2′,3′,6′-trifluoro[1,1′-biphenyl]-2-yl)cyclopropane-1-carbonyl]azetidin-2-yl}methyl)methanesulfonamide]  73%
4. CS(=O)(=O)NC[C@@H]1CCN1C(=O)[C@@H]1C[C@H]1c1ccccc1-c1c(F)cc(F)cc1F [Example 403, N-({(2S)-1-[(1R,2R)-2-(2′,4′,6′-trifluoro[1,1′-biphenyl]-2-yl)cyclopropane-1-carbonyl]azetidin-2-yl}methyl)methanesulfonamide]  83%
5. CS(=O)(=O)NC[C@H]1[C@H](C(F)F)CN1C(=O)[C@@H]1C[C@@]1(F)c1ccccc1-c1c(F)cccc1F [Example 405, N-{[(2R,3R)-1-[(1S,2S)-2-(2′,6′-difluoro[1,1′-biphenyl]-2-yl)-2-fluorocyclopropane-1-carbonyl]-3-(difluoromethyl)azetidin-2-yl]methyl}methanesulfonamide]  96%
6. CC(NS(C)(=O)=O)[C@@H]1[C@H](F)CN1C(=O)[C@@H]1C[C@@]1(F)c1ccccc1-c1c(F)cccc1F (stereo partly drawn) [Example 415, N-[(1R)-1-{(2R,3R)-1-[(1S,2S)-2-(2′,6′-difluoro[1,1′-biphenyl]-2-yl)-2-fluorocyclopropane-1-carbonyl]-3-fluoroazetidin-2-yl}ethyl]methanesulfonamide, or N-[(1S)-1-{(2R,3R)-1-[(1S,2S)-2-(2′,6′-difluoro[1,1′-biphenyl]-2-yl)-2-fluorocyclopropane-1-carbonyl]-3-fluoroazetidin-2-yl}ethyl]methanesulfonamide]  96%
7. CCS(=O)(=O)NC(C)[C@@H]1[C@H](F)CN1C(=O)[C@@H]1C[C@@]1(F)c1ccccc1-c1c(F)cccc1F (stereo partly drawn) [Example 416, N-[(1R)-1-{(2R,3R)-1-[(1S,2S)-2-(2′,6′-difluoro[1,1′-biphenyl]-2-yl)-2-fluorocyclopropane-1-carbonyl]-3-fluoroazetidin-2-yl}ethyl]ethanesulfonamide, or N-[(1S)-1-{(2R,3R)-1-[(1S,2S)-2-(2′,6′-difluoro[1,1′-biphenyl]-2-yl)-2-fluorocyclopropane-1-carbonyl]-3-fluoroazetidin-2-yl}ethyl]ethanesulfonamide]  97%
8. CCS(=O)(=O)NC[C@H]1[C@H](F)CN1C(=O)[C@@H]1C[C@@]1(F)c1ccccc1-c1c(F)cccc1F [Example 417, N-({(2S,3R)-1-[(1S,2S)-2-(2′,6′-difluoro[1,1′-biphenyl]-2-yl)-2-fluorocyclopropane-1-carbonyl]-3-fluoroazetidin-2-yl}methyl)ethanesulfonamide]  98%
9. CN(C)S(=O)(=O)NC[C@@H]1[C@H](F)CN1C(=O)[C@@H]1C[C@@]1(F)c1ccc(F)cc1-c1c(F)cccc1F [Example 424, N′-({(2R,3R)-3-fluoro-1-[(1S,2S)-2-fluoro-2-(2′,5,6′-trifluoro[1,1′-biphenyl]-2-yl)cyclopropane-1-carbonyl]azetidin-2-yl}methyl)-N,N-dimethylsulfuric diamide]  98%
10. CS(=O)(=O)NC([C@@H]1CCN1C(=O)[C@@H]1C[C@@]1(F)c1ccccc1-c1c(F)cccc1F)C1(O)CC1 (stereo partly drawn) [Example 418, N-[(R)-{(2S)-1-[(1S,2S)-2-(2′,6′-difluoro[1,1′-biphenyl]-2-yl)-2-fluorocyclopropane-1-carbonyl]azetidin-2-yl}(1-hydroxycyclopropyl)methyl]methane-sulfonamide, or N-[(S)-{(2S)-1-[(1S,2S)-2-(2′,6′-difluoro[1,1′-biphenyl]-2-yl)-2-fluorocyclopropane-1-carbonyl]azetidin-2-yl}(1-hydroxycyclopropyl)methyl]methanesulfonamide]  99%
11. CS(=O)(=O)NCC1N(C(=O)[C@@H]2C[C@@]2(F)c2ccccc2-c2c(F)cccc2F)CC1(F)F (stereo partly drawn) [Example 409, N-({(2R)-1-[(1S,2S)-2-(2′,6′-difluoro[1,1′-biphenyl]-2-yl)-2-fluorocyclopropane-1-carbonyl]-3,3-difluoroazetidin-2-yl}methyl)methanesulfonamide, or N-({(2S)-1-[(1S,2S)-2-(2′,6′-difluoro[1,1′-biphenyl]-2-yl)-2-fluorocyclopropane-1-carbonyl]-3,3-difluoroazetidin-2-yl}methyl)methanesulfonamide]  100%
12. CCS(=O)(=O)NC[C@@H]1[C@@H](F)CN1C(=O)[C@@H]1C[C@@]1(F)c1ccccc1-c1c(F)cccc1F [Example 414, N-({(2R,3S)-1-[(1S,2S)-2-(2′,6′-difluoro[1,1′-biphenyl]-2-yl)-2-fluorocyclopropane-1-carbonyl]-3-fluoroazetidin-2-yl}methyl)ethanesulfonamide]  101%
13. CCS(=O)(=O)NC[C@@H]1[C@H](F)CN1C(=O)[C@@H]1C[C@@]1(F)c1ccc(C)cc1-c1c(F)cccc1F [Example 410, N-({(2R,3R)-1-[(1S,2S)-2-(2′,6′-difluoro-5-methyl[1,1′-biphenyl]-2-yl)-2-fluorocyclopropane-1-carbonyl]-3-fluoroazetidin-2-yl}methyl)ethanesulfonamide]  103%
14. COC[C@H](NS(C)(=O)=O)C1CCN1C(=O)[C@@H]1C[C@@]1(F)c1ccccc1-c1c(F)cccc1F (stereo partly drawn) [Example 419, N-[(1R)-1-{(2R)-1-[(1S,2S)-2-(2′,6′-difluoro[1,1′-biphenyl]-2-yl)-2-fluorocyclopropane-1-carbonyl]azetidin-2-yl}-2-methoxyethyl]methanesulfonamide, or N-[(1R)-1-{(2S)-1-[(1S,2S)-2-(2′,6′-difluoro[1,1′-biphenyl]-2-yl)-2-fluorocyclopropane-1-carbonyl]azetidin-2-yl}-2-methoxyethyl]methanesulfonamide]  104%
15. CS(=O)(=O)NC[C@@H]1[C@H](F)CN1C(=O)[C@@H]1C[C@@]1(F)c1ccc(F)cc1-c1c(F)cccc1F [Example 413, N-({(2R,3R)-3-fluoro-1-[(1S,2S)-2-fluoro-2-(2′,5,6′-trifluoro[1,1′-biphenyl]-2-yl)cyclopropane-1-carbonyl]azetidin-2-yl}methyl)methanesulfonamide]  109%
